# Key:
# [1] = tested on: facial skin tone (spots, melanin evenness); assay: 9-week clinical study, randomized, double-blind, vehicle-controlled, split-face; format: in vivo, human
# Description: For example, hexyldecanol was compared to vehicle controls and positive controls (5% Niacinamide+1% undecylenoyl phenylalanine) through a 9-week period. Specifically the trial included a 9-week clinical study with a randomized, double-blind, round robin, vehicle-controlled, split-face design, including one week normalization period whereby 330 subjects received test product.
# tone genes = assay: Human Ex-vivo Pre-Clinical Model, fold regulation changes by clinical formulations; format: cell-based; conditions: FIGS. 25a and 25b
# Method: FIGS. 25a and 25b show two respective tables showing ex-vivo model fold regulation changes indicating significant down-regulation by clinical formulations in the Human Ex-vivo Pre-Clinical Model.
# (§1) The ex-vivo screening method has provided identification of agents consistent with in-vitro studies and which have proven positive clinically. One such example is hexyldecanol. […] For example, total melanin assays were performed using a rat melanoma line known to produce melanin. […] Therefore, promising tone agents such as hexyldecanol identified from the in-vitro model and the ex-vivo model have been tested in clinical settings.
# [2] = tested on: rat melanoma line known to produce melanin; assay: total melanin assay in melanoma cell culture; format: cell-based; conditions: rat melanoma cell cultures; compared to controls
# Method: as §1
# tone genes of interest = assay: ex-vivo tissue culture exposed to compounds known to stimulate the pigmentation pathway, tone gene regulation; format: cell-based, human; conditions: p≤0.1, minimum of 2-10 experiments each
# 9 epidermal tone genes [3] = assay: endogenously driven ex-vivo human skin tissue, regulation of tone genes (mRNA/PCR) vs untreated control; format: cell-based; conditions: number of epidermal genes regulated, endogenously driven tissue sample, 37° C. and 70% humidity, 2-10 experiments each
# Method: Referring to FIGS. 11 to 15, examples are shown for the regulation of the 9 epidermal tone genes against an untreated control in an endogenously driven ex-vivo tissue system at 37° C. and 70% humidity for niacinamide, hexamidine, N-Acetyl glucosamine, kojic acid, tranexamic acid, and undecylenoyl phenylalanine (2-10 experiments each). […] For instance, out of the 9 epidermal genes, at least one compound (Hexamidine) regulated 9 genes (with a statistical significance of p<0.1 or better) while two compounds regulated 5 or fewer genes (with a p<0.1 or better). Table 1 below summarizes the number of epidermal genes regulated by certain materials in an endogenously driven tissue sample with a statistical significance of p≤0.1.
# Culturing involved setting up culture plates: putting 2.5 ml of media or treatment into each well of a 6-well tissue plate, adding one Millicell culture insert to each well, and putting 100 μl of 1×DMEM on the center of each insert membrane. Squares were selected randomly placed into each of the inserts (one piece of skin per insert), on top of the media on the membrane. The plates were stored at either 33° C. (though an additional non-limiting example would be 37° C. depending on the experiment endpoint). […]
# Culture and treatment of the model comprised replicates of n=5 (though replicates of additional quantities may be used such as n=6). […]
# 9 epidermal tone genes [4] = assay: Stem Cell Factor/Endothelin 1 driven ex-vivo human skin tissue, regulation of tone genes vs untreated control; format: cell-based; conditions: number of the 9 epidermal genes regulated, Stem Cell Factor/Endothelin 1 driven tissue sample, 37° C. and 70% humidity
# Method: Referring to FIGS. 19 to 23, examples (of 2-10 experiments each) are shown for the regulation of the 9 epidermal tone genes against an untreated control in ex-vivo tissue driven by the combination of Stem Cell Factor and Endothelin at 37° C. and 70% humidity for niacinamide, hexamidine, N-Acetyl glucosamine, kojic acid, tranexamic acid, and undecylenoyl phenylalanine. […] For instance, out of the 9 epidermal genes, at least one compound (undecylenoyl phenylalanine) regulated 5 genes (with a statistical significance of p<0.1 or better) while two compounds regulated 2 or fewer genes (with a p<0.1 or better). Table 2 below summarizes the number of epidermal genes regulated by certain materials in a Stem Cell Factor/Endothelin 1 driven tissue sample with a statistical significance of p≤0.1.
# In example embodiments, tone is driven by application of stem cell factor and/or endothelin (with skin preparation, culturing, and mRNA processing being completed as previously described). In an example embodiment, skin samples are placed within 6-well plates, with 2.5 ml of media per well. A concentration of eighty nanograms per milliliter of stem cell factor as well as eighty nanograms per milliliter of endothelin was applied to tissue in the wells, with the media being refreshed daily. The culture was maintained for seven days. […]
molecule,measurement,setting,value
"CCCCCCCCC(CO)CCCCCC (stereo not drawn) [Hexyldecanol, hexyldecanol]",overall comparison to vehicle,[1]; significant if p<0.10 (1-sided) vs. vehicle,statistically better than vehicle controls
same,melanin evenness,[1]; versus vehicle control,significantly different from controls
same,spot area fraction (total area of spots per face),[1]; versus vehicle control,decreased versus the control group
same,gene regulation in ex-vivo model,tone genes,down-regulation
same,total melanin produced,[2],decreased total melanin
Stem Cell Factor: compound known to stimulate the pigmentation pathway; paracrine agent,regulation of tone genes of interest,tone genes of interest,up regulate one or more tone genes of interest
tranexamic acid,# Genes (out of 9) with p ≤ 0.1,9 epidermal tone genes [3],7
same,# of Genes with p ≤ 0.1,9 epidermal tone genes [4],3
α-MSH [reference compound],regulation of tone genes of interest,tone genes of interest,up regulate one or more tone genes of interest
